Laboratory results as given in US10464930B2, “Compositions and methods for treating estrogen-related medical disorders” (THE BOARD OF TRUSTEES OF THE UNIVERSITY OF ILLINOIS, priority 2012, dated 2019).
Like-named read-outs stand apart in the source and are kept apart here.

Legend:
[1] = system: LTP in the CA1 region of hippocampal sections; assay: LTP after theta burst stimulation in hippocampal slices; design: species or system mouse; conditions: for end average potentiation of fEPSP (LTP): 30 min prior to TBS, slices of 16-month male 3×Tg mice
Description: LTP was measured after TBS in the CA1 region of hippocampal sections from 16 month male 3×Tg mice or WT controls. Test compounds (SERMs 100 nM; G15 100 nM) were added 30 min prior to TBS. […] (C) Secondary analysis of theta bursts indicate action both during induction and stabilization of LTP, through a GPR30 dependent mechanism.
LTP was measured after TBS in the CA1 region of hippocampal sections from 8 month old male C57Bl/6 mice. G15 (100 nM) was added 30 min prior to TBS and continued throughout. G15 had no effect on LTP, which reached levels equal to WT background in FIG. 2 for both controls and G15.
LTP was measured in the CA1 region of hippocampal sections from 16 month male 3×Tg mice using the method detailed in manuscript, with the exception of a variable interburst interval during TBS. ODQ (10 nM) was added 30 min prior to TBS and continued throughout.
Electrophysiology. All experiments used 16-month old male 3×Tg transgenic or age-matched WT background controls. For electrophysiology, mice were rapidly decapitated, and brains were removed into an ice-cold aCSF solution (in mM: NaCl 124, KCl 3.0, KH2PO4 1.25, NaHCO3 25.7, D-glucose 10, L-ascorbate 2.0, MgSO4 2.5, and CaCl2 3.3) and sectioned on a tissue chopper into 400 um sections. Slices were transported to a 37° C. solution of aCSF, continuously bubbled with 95% O2/5% CO2, and allowed to recover at least 60 min before experimentation. After placement of a stimulation electrode in the Schaffer commissural fibers and recording electrodes with 2 M NaCl solution into the stratum radiatum of the CA1 area, stimulus intensity was set to evoke submaximal fEPSP and continuously monitored at 20 s intervals for at least 15 min to establish a stable baseline. SERMs (100 nM) and G15 (100 nM) were prepared fresh in perfusate and started at least 30 min before LTP induction to reach a new baseline after enhancement of basal synaptic transmission was observed(97). LTP was induced using a theta burst induction protocol by applying 10 bursts of four pulses at 100 Hz with an interburst interval of 200 msec. Resulting fEPSP was monitored at 20 s intervals for […] post TBS.
Long-term potentiation (LTP) in the CA1 field of the hippocampus is a well-studied cellular model for learning and memory. […] At 16 months, an advanced age at which Alzheimer's-like neuropathology is well developed in these animals, studies on LTP have not previously been reported. We observed a robust, reproducible deficit in LTP in these aged transgenic mice, with field excitatory post-synaptic potentials (fEPSP) showing an end average potentiation of 97.0±6.4% of baseline at 45 min post-TBS, compared to 134.7±10.3% observed in the wild type (WT) controls (FIG. 2A,B).
To determine if drugs enhanced LTP by altering physiological responses during LTP induction, such as NMDA receptor-mediated currents or downstream events involved in expression or stabilization, the postsynaptic responses to theta bursts were quantified as previously described (56, 57).

[2] = system: primary cortical neurons exposed to OGD; assay: Oxygen glucose deprivation (OGD) neuroprotection, MTT; assay type: cell-based, rat; conditions: for neuroprotection (cell survival by MTT): 2 h OGD, survival at 24 h, SERMs 100 nM, normalized to E2 10 nM; for neuroprotective activity with GPR30 antagonist: plus G15 (100 nM); for neuroprotective activity with GPR blocker: plus pertussis toxin (100 ng/mL)
[3] = CNS bioavailability by LC-MS/MS; assay type: in vivo, mouse; conditions: 5 mg/kg i.p., up to 2 h after administration
Description: (§1) CNS Bioavailability & NOX Measurement. All experiments were performed on either male C57B1/6 mice (Charles River Laboratory) or eNOS(−/−) animals. Animals were injected (i.p.) at various time points before sacrifice at the doses specified. After euthanasia via CO2, plasma was collected, and cortices and hippocampi were collected after PBS perfusion and stored at −80° C. Tissue samples were weighed and extracted with methanol. Plasma samples were extracted with cold acetonitrile. Quantitative analysis of drug concentrations in plasma and brain used internal standards spiked into plasma and brain homogenates before liquid extraction with acetonitrile or methanol, and separation and measurement was performed with LC-MS/MS tandem mass spectrometry. The supernatant (deproteinized) was analyzed by chemiluminescence with SIEVERS 280i nitric oxide analyzer.
(§2) Brain and plasma NO levels were assessed by measuring metabolic oxidation products, NO2^− and NO3^− (NOx), using chemiluminescence detection. […] To assess the relative contribution of eNOS, DMA and NO-DMA were administered to eNOS(−/−) animals.

[4] = system: NO levels (NOx) in plasma and hippocampus; assay: NOx measurement in plasma and CNS by chemiluminescence; assay type: in vivo, mouse; conditions: 2 mg/kg; for NOx in plasma or hippocampus, eNOS(−/−): eNOS(−/−) animals; for NOx in hippocampus and plasma, WT: one hour after injection, WT mice
Description: Levels of NO were assessed by measuring breakdown products 1 h after i.p. injection of SERMs (2 mg/kg) using chemiluminescence detection.
as §1, §2

[5] = system: scopolamine- or L-NAME-induced memory deficit; assay: Step through passive avoidance (STPA); assay type: in vivo, mouse; conditions: for reversal of scopolamine-induced memory deficit (STPA latency): 2 mg/kg i.p. 20 min prior to training, scopolamine 1 mg/kg, C57Bl/6, 24 h; for reversal of L-NAME-induced cognitive deficit (STPA) / reversal of scopolamine-induced deficit in eNOS KO mice (STPA): 2 mg/kg; for reversal of L-NAME-induced cognitive deficit (STPA): L-NAME 50 mg/kg 30 min prior to training
[6] = system: clotting cascades (PT, aPTT); assay: Anticoagulation: PT and aPTT after i.p. dosing; assay type: in vivo, mouse; conditions: for anticoagulation with impaired NOS function: 2 mg/kg 1 h prior, L-NAME 50 mg/kg 30 m prior to collection; for PT / aPTT / anticoagulant effect at 3 h: 2 mg/kg i.p.; for PT / aPTT: 1 h
Description: Blood was collected by cardiac puncture and PTT and aPTT were determined 1 or 3 h after i.p. drug administration (2 mg/kg).
Anticoagulation. SERMs were injected (i.p.) 1 h before blood collection, and L-NAME was injected (i.p.) 30 min before blood collection. The mouse was sedated by exposing it to CO2 until unconscious and blood was collected in 4.5 mL BD Vacutainer Glass Evacuated Blood Collection Tubes (with 0.105 M buffered sodium citrate) by cardiac puncture. The blood samples were centrifuged at 300 g for 30 min to separate the plasma from the blood, and then 200 uL of plasma was taken from each sample and the PT and aPTT were measured using an ACL 7000 Coagulation Analyzer. The analyzer injects […] of PT-fibrinogen (lyophilized rabbit brain calcium thromboplastin with stabilizers, polybrene, buffer and preservatives) to 75 μL of plasma sample to measure the PT, and 75 μL of synthAFAX (0.025 M)+100 μL of CaCl2 (0.02 M) were added to 75 μL of plasma to measure aPTT. The analysis was at 37° C. using a photo sensor at λ=671 nm.

isolated aortic rings = assay: Aortic ring relaxation
ERα = biological target: T1, ERα (Homo sapiens, UniProt P03372); assay: ER ligand binding by competitive E2 displacement (ERα)
T1 sequence (P03372 1-595): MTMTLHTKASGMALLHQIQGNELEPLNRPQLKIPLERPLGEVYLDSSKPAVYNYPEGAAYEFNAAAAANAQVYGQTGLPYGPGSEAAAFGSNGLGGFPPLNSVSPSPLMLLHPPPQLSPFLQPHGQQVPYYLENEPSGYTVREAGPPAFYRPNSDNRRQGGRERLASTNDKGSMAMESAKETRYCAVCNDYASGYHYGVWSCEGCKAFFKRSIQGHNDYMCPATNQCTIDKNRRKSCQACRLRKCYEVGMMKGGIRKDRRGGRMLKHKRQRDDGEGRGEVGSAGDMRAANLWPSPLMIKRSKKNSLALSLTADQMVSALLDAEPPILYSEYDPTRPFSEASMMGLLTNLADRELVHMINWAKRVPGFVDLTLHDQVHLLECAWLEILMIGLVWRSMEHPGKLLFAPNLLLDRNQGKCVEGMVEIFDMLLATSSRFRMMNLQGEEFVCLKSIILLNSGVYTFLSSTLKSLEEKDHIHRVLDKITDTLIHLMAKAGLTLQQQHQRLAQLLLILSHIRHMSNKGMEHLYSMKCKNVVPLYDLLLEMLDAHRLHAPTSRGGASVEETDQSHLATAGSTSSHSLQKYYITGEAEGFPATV

ERβ = ERβ (Homo sapiens, UniProt Q92731); assay: ER ligand binding by competitive E2 displacement (ERβ)
Sequence of ERβ (Q92731 whole entry, species assumed): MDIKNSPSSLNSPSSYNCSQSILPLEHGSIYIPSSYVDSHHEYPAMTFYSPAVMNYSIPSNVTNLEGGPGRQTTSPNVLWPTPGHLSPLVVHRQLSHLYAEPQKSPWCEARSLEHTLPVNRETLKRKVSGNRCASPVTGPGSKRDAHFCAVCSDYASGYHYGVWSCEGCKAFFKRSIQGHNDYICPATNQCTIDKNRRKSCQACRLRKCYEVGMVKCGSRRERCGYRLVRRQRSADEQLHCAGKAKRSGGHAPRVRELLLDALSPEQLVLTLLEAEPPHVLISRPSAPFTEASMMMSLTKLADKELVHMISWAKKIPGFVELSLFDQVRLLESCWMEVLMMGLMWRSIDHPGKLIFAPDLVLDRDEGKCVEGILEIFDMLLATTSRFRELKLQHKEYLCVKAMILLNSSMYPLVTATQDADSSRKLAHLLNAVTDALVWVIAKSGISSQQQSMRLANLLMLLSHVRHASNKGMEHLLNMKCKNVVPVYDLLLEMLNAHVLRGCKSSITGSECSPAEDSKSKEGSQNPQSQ

[7] = Rattus norvegicus, read-out: EC50 for relaxation

Structure (SMILES)	neuroprotection (cell survival by MTT) [2]	neuroprotective activity with GPR30 antagonist [2]	neuroprotective activity with GPR blocker [2]	enhancement of subsequent theta bursts during LTP induction ([1]; 100 nM, 3×Tg slices)	end average potentiation of fEPSP (LTP) ([1]; 100 nM)	NOx in plasma or hippocampus, eNOS(−/−) [4]	NOx in hippocampus and plasma, WT [4]	reversal of scopolamine-induced memory deficit (STPA latency) [5]	reversal of L-NAME-induced cognitive deficit (STPA) [5]	reversal of scopolamine-induced deficit in eNOS KO mice (STPA) [5]	anticoagulation with impaired NOS function [6]	PT [6]	aPTT [6]	anticoagulant effect at 3 h [6]	EC50 (isolated aortic rings; [7]) [nM]	efficacy (relaxation) (isolated aortic rings; intact aortic rings) [%]	other results
Brc1cc2c(cc1[C@@H]1Nc3ccccc3[C@@H]3C=CC[C@@H]31)OCO2 [Compound G15]																	effect on LTP in WT slices ([1]; 100 nM, WT C57Bl/6 slices, absence of DMA): no effect
Oc1ccc(-c2sc3cc(O)ccc3c2Oc2ccc(OCCN3CCCCC3)cc2)cc1 [DMA, desmethylarzoxifene]	robust neuroprotection	blocked	blocked	augmented	144.9±8.7 % of baseline	no effect	greater than twofold elevation	restored the cognitive deficit	not able to restore cognition	not able to restore cognition	did not persist in the presence of NOS blockade	increased PT	significantly increased	decreased to that of control samples	3500 ± 2500	~100	end fEPSP (LTP) with GPR30 blocker ([1]; DMA 100 nM plus G15 (100 nM), 3×Tg slices): 96.8±7.10%; effect on LTP with ODQ ([1]; plus ODQ (10 nM), 3×Tg slices, preliminary): ODQ blocks effect of DMA; brain regional retention [3]: preferential retention in the hippocampus over the cortex; efficacy after endothelium removal or NOS inhibition (isolated aortic rings; removal of the endothelium or L-NAME): significant decrease in the efficacy
Oc1ccc2c(Oc3ccc(OCCN4CCCCC4)cc3)c(-c3ccc(F)cc3)sc2c1 [F-DMA]																	IC50 (ERα; competitive E2 displacement): 17 ± 0.6 nM; EC50 (isolated aortic rings; read-out: EC50 for relaxation, intact aortic rings, mean, S.D.): 2400 ± 1200 nM
O=[N+]([O-])OCCCC1CCN(CCOc2ccc(Oc3c(-c4ccc(O)cc4)sc4cc(O)ccc34)cc2)CC1 [NO-DMA, 3-(1-(2-(4-(6-hydroxy-2-(4-hydroxyphenyl)benzo[b]thiophen-3-yloxy)phenoxy)ethyl)piperidin-4-yl)propyl nitrate]	robust neuroprotection identical to DMA	blocked	blocked	augmented	144.2±5.2 % of baseline	increase NOx significantly	greater than twofold elevation	equivalent restoration of protection to DMA	reversed only by NO-DMA	only NO-DMA showed efficacy	significant anticoagulation compared to control	increased PT, but only NO-DMA reached significance	significantly increased	remained significantly higher than control	130 ± 90		IC50 (ERα): 21.4 ± 6.7 nM; IC50 (ERβ): 24.4 ± 9.6 nM; neuroprotection with ERα blockade ([2]; plus ICI 182780 (100 nM), added 45 min prior to OGD): did not block this effect; attenuation of neuroprotective activity by NOS antagonist ([2]; plus L-NAME (100 μM)): ineffective; attenuation of neuroprotective activity by PI3K inhibitor ([2]; plus LY294002 (10 μM)): effective; EC50 (isolated aortic rings; Rattus norvegicus, read-out: EC50 for relaxation, L-NAME): 1000 ± 540 nM; EC50 (isolated aortic rings; Rattus norvegicus, read-out: EC50 for relaxation, endothelium-denuded): 900 ± 690 nM; maximal relaxation response (isolated aortic rings; intact aortic rings): induced maximal relaxation; potency relative to DMA (isolated aortic rings; intact aortic rings): at least ten-fold increased potency
COc1ccc(-c2sc3cc(O)ccc3c2Oc2ccc(OCCN3CCCCC3)cc2)cc1 [arzoxifene]								restored the cognitive deficit							3300 ± 2500		
O=C(c1ccc(OCCN2CCCCC2)cc1)c1c(-c2ccc(O)cc2)sc2cc(O)ccc12 [raloxifene, Raloxifene]								restored the cognitive deficit							4000 ± 2900	~100	
